Test results from patent US20110053947A1, “Arylchalcogenoarylalkyl-substituted imidazolidine-2,4-diones, process for preparation thereof, medicaments comprising these compounds and use thereof” (SANOFI-AVENTIS, priority 2008, published 2011).
Structures can show the parent of a compound that is named as a salt.

target: T1, cannabinoid 1 receptor (hCB1R) (Homo sapiens, UniProt P21554); assay: In vitro functional assay with recombinant cells (FLIPR), CB1; format: cell-based; conditions: recombinant HEK293 cells expressing CB1 and G-protein; intracellular Ca2+ change after reference agonist, 20 min preincubation; read-out: hCB1R: FLIPR; IC50
T1 construct: expressed in transfected cells; host or cells: HEK293
T1 sequence (P21554 whole entry): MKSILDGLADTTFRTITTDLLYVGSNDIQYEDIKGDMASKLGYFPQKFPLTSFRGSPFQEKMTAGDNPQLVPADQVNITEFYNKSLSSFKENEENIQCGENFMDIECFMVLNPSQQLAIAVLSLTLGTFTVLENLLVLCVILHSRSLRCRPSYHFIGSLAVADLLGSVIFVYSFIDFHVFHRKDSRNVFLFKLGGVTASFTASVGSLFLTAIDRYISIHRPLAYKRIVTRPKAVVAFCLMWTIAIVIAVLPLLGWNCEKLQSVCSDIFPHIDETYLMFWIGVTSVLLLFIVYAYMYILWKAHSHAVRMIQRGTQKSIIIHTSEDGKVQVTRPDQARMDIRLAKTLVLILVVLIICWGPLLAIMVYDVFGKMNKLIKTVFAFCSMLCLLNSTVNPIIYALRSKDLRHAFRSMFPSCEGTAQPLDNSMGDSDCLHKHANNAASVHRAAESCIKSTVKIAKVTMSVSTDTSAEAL
Procedure: In vitro functional assays with recombinant cells:
Function-testing assays were performed by means of the FLIPR technique (“Fluorometric Imaging Plate Reader”, Molecular Devices Corp.).
To this end, ligand-induced changes in the intracellular concentration of Ca^2+ in recombinant HEK293 cells, which expressed both a cannabinoid receptor (CB1 or CB2) and G-protein Galphal6, were determined. For the studies, cells were sown into 96-well microtiter plates (60 000 cells/well) and left to grow overnight. The medium was removed and the cells were incubated in buffer which contained the fluorescent dye Fluo-4. After this loading with dye, the cells were washed, test substance was added dissolved in buffer, the mixture was incubated for 20 minutes, a known cannabinoid receptor agonist as a reference agonist was added in buffer and, finally, the changes in the intracellular Ca^2+ concentration were measured in the FLIPR unit.
Results were presented as the percentage change relative to the control (0%: analogous experiment without test substance and without reference agonist, i.e. only with buffer; 100%: analogous experiment without test substance, but with reference agonist in excess), and used to calculate dose/action curves, and IC50 values were determined.
The values of the functional assay compared to the cannabinoid 1 receptor including illustrative selectivities compared to the cannabinoid 2 receptor can be taken from table 1 which follows.

SMILES | IC50
CC1(C)C(=O)N(c2ccc(C#N)c(C(F)(F)F)c2)C(=O)N1Cc1ccccc1NC(=O)Nc1ccc(C(N)=O)cc1 [Example 16, 4-(3-{2-[3-(4-Cyano-3-trifluoromethylphenyl)-5,5-dimethyl-2,4-dioxoimidazolidin-1-ylmethyl]phenyl}ureido)benzamide] | 12 nM
COC(=O)c1ccc(NC(=O)Nc2cc(F)ccc2CN2C(=O)N(c3ccc(C#N)c(C(F)(F)F)c3)C(=O)C2(C)C)cc1 [Example 17, Methyl 4-(3-{2-[3-(4-cyano-3-trifluoromethylphenyl)-5,5-dimethyl-2,4-dioxoimidazolidin-1-ylmethyl]-5-fluorophenyl}ureido)benzoate] | 10 nM
CC1(C)C(=O)N(c2ccc(C#N)c(C(F)(F)F)c2)C(=O)N1Cc1ccc(F)cc1NC(=O)Nc1ccc(S(C)(=O)=O)cc1 [Example 19, 1-{2-[3-(4-Cyano-3-trifluoromethylphenyl)-5,5-dimethyl-2,4-dioxoimidazolidin-1-ylmethyl]-5-fluorophenyl}-3-(4-methane-sulfonylphenyl)urea] | 9 nM
CC1(C)C(=O)N(c2ccc(C#N)c(C(F)(F)F)c2)C(=O)N1Cc1ccc(F)cc1NC(=O)Nc1ccc(Cl)nc1 [Example 20, 1-(6-chloropyridin-3-yl)-3-{2-[3-(4-cyano-3-trifluoromethylphenyl)-5,5-dimethyl-2,4-dioxoimidazolidin-1-ylmethyl]-5-fluorophenyl}urea] | 16 nM
CC1(C)C(=O)N(c2ccc(C#N)c(C(F)(F)F)c2)C(=O)N1Cc1ccc(F)cc1NC(=O)Nc1ccc(S(N)(=O)=O)cc1 [Example 22, 4-(3-{2-[3-(4-Cyano-3-trifluoromethylphenyl)-5,5-dimethyl-2,4-dioxoimidazolidin-1-ylmethyl]-5-fluorophenyl}ureido)benzenesulfonamide] | 9 nM
CC1(C)C(=O)N(c2ccc(F)c(C(F)(F)F)c2)C(=O)N1Cc1ccc(F)cc1NC(=O)Nc1ccc(S(=O)(=O)O)cc1 [Example 25, 4-(3-{5-fluoro-2-[3-(4-fluoro-3-trifluoromethylphenyl)-5,5-dimethyl-2,4-dioxoimidazolidin-1-ylmethyl]phenyl}ureido)benzenesulfonic acid] | 58 nM
CC1(C)C(=O)N(c2ccc(F)c(C(F)(F)F)c2)C(=O)N1Cc1ccc(F)cc1NC(=O)Nc1ccc(S(=O)(=O)O)cc1 [Example 26, Sodium salt of 4-(3-{5-fluoro-2-[3-(4-fluoro-3-trifluoromethylphenyl)-5,5-dimethyl-2,4-dioxoimidazolidin-1-ylmethyl]phenyl}ureido)benzenesulfonic acid] | 66 nM
CC1(C)C(=O)N(c2ccc(F)c(C(F)(F)F)c2)C(=O)N1Cc1ccc(F)cc1NC(=O)Nc1ccc(S(C)(=O)=O)cc1 [Example 27, 1-{5-Fluoro-2-[3-(4-fluoro-3-trifluoromethylphenyl)-5,5-dimethyl-2,4-dioxoimidazolidin-1-ylmethyl]phenyl}-3-(4-methanesulfonylphenyl)urea] | 13 nM
CC1(C)C(=O)N(c2ccc(C#N)c(C3CC3)c2)C(=O)N1Cc1ccc(F)cc1NC(=O)Nc1ccc(S(N)(=O)=O)cc1 [Example 28, 4-(3-{2-[3-(4-Cyano-3-cyclopropylphenyl)-5,5-dimethyl-2,4-dioxoimidazolidin-1-ylmethyl]-5-fluorophenyl}ureido)benzenesulfonamide] | 9 nM
CC1(C)C(=O)N(c2ccc(C#N)c(C3CC3)c2)C(=O)N1Cc1ccc(F)cc1NC(=O)Nc1ccc(S(=O)(=O)O)cc1 [Example 29, 4-(3-{2-[3-(4-cyano-3-cyclopropylphenyl)-5,5-dimethyl-2,4-dioxo-imidazolidin-1-ylmethyl]-5-fluorophenyl}ureido)benzenesulfonic acid] | 69 nM
CC1(C)C(=O)N(c2ccc(C#N)c(C3CC3)c2)C(=O)N1Cc1ccc(F)cc1NC(=O)Nc1ccc(S(C)(=O)=O)cc1 [Example 30, 1-{2-[3-(4-Cyano-3-cyclopropylphenyl)-5,5-dimethyl-2,4-dioxoimidazolidin-1-ylmethyl]-5-fluorophenyl}-3-(4-methanesulfonylphenyl)urea] | 11 nM
CSc1ccc(NC(=O)Nc2cc(F)ccc2CN2C(=O)N(c3ccc(C#N)c(C4CC4)c3)C(=O)C2(C)C)cc1 [Example 30.1, 1-{2-[3-(4-cyano-3-cyclopropylphenyl)-5,5-dimethyl-2,4-dioxoimidazolidin-1-ylmethyl]-5-fluorophenyl}-3-(4-methylsulfanylphenyl)urea] | 12 nM
CC1(C)C(=O)N(c2ccc(F)c(C(F)(F)F)c2)C(=O)N1Cc1ccc(F)cc1NC(=O)Nc1ccc(NS(C)(=O)=O)cc1 [Example 31, N-[4-(3-{5-Fluoro-2-[3-(4-fluoro-3-trifluoromethylphenyl)-5,5-dimethyl-2,4-dioxoimidazolidin-1-ylmethyl]phenyl}ureido)phenyl]methanesulfonamide] | 32 nM
CC1(C)C(=O)N(c2ccc(C#N)c(C(F)(F)F)c2)C(=O)N1Cc1ccc(F)cc1NC(=O)Nc1ccc(O)cc1 [Example 41, 1-{2-[3-(4-Cyano-3-trifluoromethylphenyl)-5,5-dimethyl-2,4-dioxo-imidazolidin-1-ylmethyl]-5-fluorophenyl}-3-(4-hydroxyphenyl)urea] | 4 nM
CC1(C)C(=O)N(c2ccc(C#N)c(C3CC3)c2)C(=O)N1Cc1ccc(F)cc1NC(=O)Nc1ccc(S(=O)(=O)CC(=O)O)cc1 [Example 47, [4-(3-{2-[3-(4-Cyano-3-cyclopropylphenyl)-5,5-dimethyl-2,4-dioxoimidazolidin-1-ylmethyl]-5-fluorophenyl}ureido)benzenesulfonyl]acetic acid] | 25 nM
CC1(C)C(=O)N(c2ccc(C#N)c(C(F)(F)F)c2)C(=O)N1Cc1ccc(F)cc1NC(=O)Nc1ccc(SCC(=O)O)cc1 [Example 50, [4-(3-{2-[3-(4-Cyano-3-trifluoromethylphenyl)-5,5-dimethyl-2,4-dioxoimidazolidin-1-ylmethyl]-5-fluorophenyl}ureido)phenylsulfanyl]acetic acid] | 13 nM
CC1(C)C(=O)N(c2ccc(F)c(C(F)(F)F)c2)C(=O)N1Cc1ccc(F)cc1NC(=O)Nc1ccc(C(=O)O)cc1 [Example 60, 4-(3-{5-fluoro-2-[3-(4-fluoro-3-trifluoromethylphenyl)-5,5-dimethyl-2,4-dioxoimidazolidin-1-ylmethyl]phenyl}-ureido)benzoic acid] | 53 nM
CC1(C)C(=O)N(c2ccc(F)c(C(F)(F)F)c2)C(=O)N1Cc1ccc(F)cc1NC(=O)Nc1ccc(C(=O)NS(C)(=O)=O)cc1 [Example 61, N-[4-(3-{5-Fluoro-2-[3-(4-fluoro-3-trifluoromethylphenyl)-5,5-dimethyl-2,4-dioxoimidazolidin-1-ylmethyl]phenyl}ureido)benzoyl]methanesulfonamide] | 16 nM
CC1(C)C(=O)N(c2ccc(F)c(C(F)(F)F)c2)C(=O)N1Cc1ccc(F)cc1NC(=O)Nc1ccc(C(=O)NS(=O)(=O)C(F)(F)F)cc1 [Example 62, C,C,C-trifluoro-N-[4-(3-{5-fluoro-2-[3-(4-fluoro-3-trifluoromethylphenyl)-5,5-dimethyl-2,4-dioxoimidazolidin-1-ylmethyl]phenyl}ureido)benzoyl]methanesulfonamide] | 46 nM
CC1(C)C(=O)N(c2ccc(F)c(C(F)(F)F)c2)C(=O)N1Cc1ccc(F)cc1NC(=O)Nc1ccc(C(=O)NS(=O)(=O)Cc2ccccc2)cc1 [Example 64, N-[4-(3-{5-fluoro-2-[3-(4-fluoro-3-trifluoromethylphenyl)-5,5-dimethyl-2,4-dioxoimidazolidin-1-ylmethyl]phenyl}ureido)benzoyl]-C-phenylmethanesulfonamide] | 39 nM
CC1(C)C(=O)N(c2ccc(F)c(C(F)(F)F)c2)C(=O)N1Cc1ccc(F)cc1NC(=O)Nc1ccc(C(=O)NS(=O)(=O)C2CC2)cc1 [Example 65, N-[4-(3-{5-fluoro-2-[3-(4-fluoro-3-trifluoromethylphenyl)-5,5-dimethyl-2,4-dioxoimidazolidin-1-ylmethyl]phenyl}ureido)benzoyl]cyclopropanesulfonamide] | 42 nM
CC1(C)C(=O)N(c2ccc(C#N)c(C3CC3)c2)C(=O)N1Cc1cc(C(F)(F)F)ccc1NC(=O)Nc1ccc(S(C)(=O)=O)cc1 [Example 66, 1-{2-[3-(4-Cyano-3-cyclopropylphenyl)-5,5-dimethyl-2,4-dioxoimidazolidin-1-ylmethyl]-4-trifluoromethylphenyl}-3-(4-methanesulfonylphenyl)urea] | 10 nM
CC1(C)C(=O)N(c2ccc(C#N)c(C3CC3)c2)C(=O)N1Cc1cc(Cl)ccc1NC(=O)Nc1ccc(S(C)(=O)=O)cc1 [Example 67, 1-{4-chloro-2-[3-(4-cyano-3-cyclopropylphenyl)-5,5-dimethyl-2,4-dioxoimidazolidin-1-ylmethyl]phenyl}-3-(4-methanesulfonylphenyl)urea] | 6 nM
COc1cc(CN2C(=O)N(c3ccc(F)c(C(F)(F)F)c3)C(=O)C2(C)C)c(NC(=O)Nc2ccc(S(N)(=O)=O)cc2)cc1OC [Example 68, 4-(3-{2-[3-(4-fluoro-3-trifluoromethylphenyl)-5,5-dimethyl-2,4-dioxoimidazolidin-1-ylmethyl]-4,5-dimethoxyphenyl}ureido)benzenesulfonamide] | 39 nM
